Reference: patent US4383113A, “Agricultural sulfonamides” (E. I. Du Pont de Nemours and Company, priority 1981, dated 1983)

Assays:
cocklebur = test: Test A pre-emergence; type: in vivo, Xanthium spp.; design: key: 0 = no effect, 10 = maximum effect; letter = response symbol
Summary of the method: (§1)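 Seeds and tubers were treated preemergence in a growth medium with compound in a nonphytotoxic solvent, against untreated controls; emerged plants such as two-leaf barnyardgrass and five-leaf cotton were sprayed postemergence, against solvent-sprayed controls. After sixteen days in a greenhouse, response was rated visually from 0 to 10.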

morningglory = test: Test A pre-emergence; type: in vivo, Ipomoea spp.; design: key: 0 = no effect, 10 = maximum effect; letter = response symbol
Summary of the method: as §1

barnyardgrass = test: Test A pre-emergence; type: in vivo, Echinochloa crusgalli; design: key: 0 = no effect, 10 = maximum effect; letter = response symbol; conditions: 0.4 kg/ha
Summary of the method: as §1

soybean = test: Test A pre-emergence; type: in vivo; design: key: 0 = no effect, 10 = maximum effect; letter = response symbol
Summary of the method: as §1

cassia = test: Test A pre-emergence; type: in vivo, Cassia tora; design: key: 0 = no effect, 10 = maximum effect; letter = response symbol; conditions: 0.4 kg/ha
Summary of the method: as §1

nutsedge = test: Test A pre-emergence; type: in vivo, Cyperus rotundus
From the text: The activity of these compounds was discovered in a number of greenhouse and field tests. The ratings are based on a numerical scale extending from 0=no effect, to 10=maximum effect. The accompanying descriptive symbols have the following meanings:
Seeds of crabgrass (Digitaria spp.), barnyardgrass (Echinochloa crusgalli), wild oats (Avena fatua), cassia (Cassia tora), morningglory (Ipomoea spp.), cocklebur (Xanthium spp.), sorghum, corn, soybean, rice, wheat and nutsedge tubers (Cyperus rotundus) were planted in a growth medium and treated preemergence with a nonphytotoxic solvent solution of the compounds of Table XII. Other batches of seeds and tubers for all of the foregoing weed and crop plants were planted at the same time as controls. The control plantings were untreated; i.e., neither any compound nor any solvent was applied. At the same time, cotton having five leaves (including cotyledonary ones), bush beans with the third trifoliate leaf expanding, crabgrass with two leaves, barnyardgrass with two leaves, wild oats with two leaves, cassia with three leaves (including cotyledonary ones), morningglory with four leaves (including the cotyledonary ones), cocklebur with four leaves (including the cotyledonary ones), sorghum with four leaves, corn with four leaves, soybean with two cotyledonary leaves, rice with three leaves, wheat with one leaf, and nutsedge with three-five leaves were sprayed with a nonphytotoxic solvent solution of the compounds of Table XII. Other groups of all the same weed and crop plants were sprayed with the same nonphytotoxic solvent so as to provide control plants. Preemergence and postemergence treated plants and controls were maintained in a greenhouse for sixteen days, then all treated plants were compared with their respective controls and rated visually for response to treatment.

wild oats = test: Test A pre-emergence; type: in vivo, Avena fatua; design: key: 0 = no effect, 10 = maximum effect; letter = response symbol; conditions: 0.4 kg/ha
Summary of the method: as §1

wheat = test: Test A pre-emergence; type: in vivo; design: key: 0 = no effect, 10 = maximum effect; letter = response symbol; conditions: 0.4 kg/ha
Summary of the method: as §1

corn = test: Test A pre-emergence; type: in vivo; design: key: 0 = no effect, 10 = maximum effect; letter = response symbol
Summary of the method: as §1

sorghum = test: Test A pre-emergence; type: in vivo; design: key: 0 = no effect, 10 = maximum effect; letter = response symbol
Summary of the method: as §1

crabgrass = test: Test A pre-emergence; type: in vivo, Digitaria spp.; design: key: 0 = no effect, 10 = maximum effect; letter = response symbol
Summary of the method: as §1

rice = test: Test A pre-emergence; type: in vivo; design: key: 0 = no effect, 10 = maximum effect; letter = response symbol; conditions: 0.4 kg/ha
Summary of the method: as §1

purple nutsedge [1] = test: Test F soil incorporated; type: in vivo, Cyperus rotundus
From the text: (§2) Purple nutsedge tubers (Cyperus rotundus) were planted about 2 cm deep in Fallsington silt loam contained in plastic pots 10 cm in diameter. Five tubers were put in each pot. Compounds of this invention were sprayed dissolved in a non-phytotoxic solvent at a volume rate of 560 l/ha. in four different methods of treatment, i.e., soil surface spray, tuber/soil spray, soil incorporated and post-emergence. For the soil surface spray, the compounds were sprayed on the firmed soil surface immediately after planting. For the tuber/soil spray, the compounds were sprayed on the exposed tubers and subtending soil before the untreated covering soil was added. Soil incorporation treatments were mixed in the covering soil. Post-emergence treatments were sprayed on the nutsedge foliage and surrounding soil surface after the nutsedge had emerged and had reached the height of about 12 cm.
(§3) Immediately after spraying the surface spray, tuber/soil spray and soil incorporated treatments were misted with about 0.3 cm of water over a 90 minute period and then placed in the greenhouse. Post-emergence treatments were placed directly into the greenhouse and watered carefully so that treatments would not be washed from the foliage.

purple nutsedge [2] = test: Test F tuber/soil spray; type: in vivo, Cyperus rotundus
From the text: as §2, §3

purple nutsedge [3] = test: Test F soil surface spray; type: in vivo, Cyperus rotundus
From the text: as §2, §3

purple nutsedge [4] = test: Test F post-emergence; type: in vivo, Cyperus rotundus
From the text: as §2, §3

| SMILES | response rating (cocklebur; 0.4 kg/ha) | response rating (morningglory; 0.4 kg/ha) | response rating (barnyardgrass) | response rating (soybean; 0.4 kg/ha) | response rating (cassia) | response rating (nutsedge; 0.4 kg/ha) | response rating (wild oats) | response rating (wheat) | response rating (corn; 0.4 kg/ha) [G] | response rating (sorghum; 0.4 kg/ha) | response rating (crabgrass; 0.4 kg/ha) | response rating (rice) | other results |
| --- | --- | --- | --- | --- | --- | --- | --- | --- | --- | --- | --- | --- | --- |
| COc1nc(C)nc(NC(=O)NS(=O)(=O)c2ccccc2C(=O)Oc2ccccc2C)n1 | 9G | 9G | 9H | 9H | 9G | 8G | – | – | – | – | – | – | – |
| COC(=O)c1ccccc1S(=O)(=O)NC(=O)Nc1nc(OC)nc(OC)n1 [drawing 483] | 9G | 9G | 9H | 9H | 9G | 9G | 9G | 9G | 9 | 9G | 9H | – | – |
| COC(=O)c1ccccc1S(=O)(=O)NC(=O)N(C)c1nc(C)cc(C)n1 [drawing 486] | – | 0 | 2G | 0 | 0 | 0 | 0 | 4H | 3 | 4G | 3G | 8H | – |
| COc1nc(C)nc(NC(=O)NS(=O)(=O)c2ccccc2C(=O)OCCCl)n1 [drawing 493] | 9G | 9C | – | 9H | – | 9G | 8H | – | – | – | – | 9H | – |
| CCCCCCCCCCOC(=O)c1ccccc1S(=O)(=O)NC(=O)Nc1nc(OC)cc(OC)n1 [drawing 494] | 9G | 5G | – | 3G | 5G | 5G | 6G | 2G | – | 8G | 0 | 8G | – |
| CCCCCCCCCCOC(=O)c1ccccc1S(=O)(=O)NC(=O)Nc1nc(C)cc(OC)n1 [drawing 495] | 9G | 8G | – | – | 7G | 7G | – | 8G | – | – | 0 | 9H | – |
| CCCCCCCCCCOC(=O)c1ccccc1S(=O)(=O)NC(=O)Nc1nc(OC)nc(OC)n1 [drawing 496] | – | 4G | 0 | 1C | – | 0 | 0 | 0 | 2 | 2H | 0 | 0 | – |
| CCCCCCCCCCOC(=O)c1ccccc1S(=O)(=O)NC(=O)Nc1nc(C)nc(OC)n1 [drawing 497] | – | 0 | 0 | 0 | – | 2G | 0 | 0 | 4 | 3G | 2G | 0 | – |
| COc1cc(OC)nc(NC(=O)NS(=O)(=O)c2ccccc2C(=O)OC2CCCCC2)n1 [drawing 498] | 8G | 8G | 9H | – | 3G | 5G | 5G | 3G | – | 8G | 0 | 9H | – |
| COc1nc(NC(=O)NS(=O)(=O)c2ccccc2C(=O)OC2CCCCC2)nc(OC)n1 [drawing 499] | 9C | 9G | 9H | 2C | 2C | 0 | 2G | 2G | – | 8G | 0 | 5G | – |
| Cc1cc(C)nc(NC(=O)NS(=O)(=O)c2ccccc2C(=O)O)n1 [drawing 511] | – | – | – | – | – | – | – | – | – | – | – | – | response rating (cocklebur; 10 kg/ha): 9G; response rating (morningglory; 10 kg/ha): 7G; response rating (soybean; 10 kg/ha): 4G; response rating (corn; 10 kg/ha): 8; response rating (sorghum; 10 kg/ha): 5G; response rating (crabgrass; 10 kg/ha): 1C; response rating (nutsedge; 10 kg/ha): 9G |
| COc1nc(C)nc(NC(=O)NS(=O)(=O)c2ccccc2C(=O)OC2CCCC2)n1 [drawing 512] | 9G | 9G | 9H | 9H | 8G | 9G | 4G | 4G | – | – | 6G | 9H | – |
| COc1cc(C)nc(NC(=O)NS(=O)(=O)c2ccccc2C(=O)CCC(C)C)n1 [drawing 516] | 9G | 9G | – | 8H | 9G | 9G | – | 9G | 9 | 9H | – | – | – |
| COc1nc(C)nc(NC(=O)NS(=O)(=O)c2ccccc2C(=O)OC2CCCCCCC2)n1 [drawing 523] | 9G | – | 9H | 9H | 8G | 7G | 7G | 5G | – | – | 5G | 9H | – |
| CCCC(OC(=O)c1ccccc1S(=O)(=O)NC(=O)Nc1nc(C)nc(OC)n1)C(C)C (stereo not shown) [drawing 525] | 8G | 9G | 9H | 9H | 8G | 5G | 5G | 3G | 8 | – | 0 | 9H | – |
| COc1nc(C)nc(NC(=O)NS(=O)(=O)c2ccccc2C(=O)OCc2ccc(Cl)cc2)n1 [drawing 527] | 8G | 9G | – | 7H | 8G | 9G | 4G | 0 | – | – | – | 9H | – |
| COC(=O)c1ccccc1S(=O)(=O)NC(=O)Nc1ncccn1 [drawing 596] | – | – | – | – | – | – | – | – | – | – | – | – | response rating after 4 weeks (purple nutsedge [1]; .032 kg/ha): 0; response rating after 4 weeks (purple nutsedge [2]; .032 kg/ha): 2G; response rating after 4 weeks (purple nutsedge [3]; .032 kg/ha): 0; response rating after 4 weeks (purple nutsedge [4]; .032 kg/ha): 0; response rating after 4 weeks (purple nutsedge [4]; .125 kg/ha): 9C |
| COC(=O)c1ccccc1S(=O)(=O)NC(=O)Nc1nnc(C)c(C)n1 [drawing 597] | – | – | – | – | – | – | – | – | – | – | – | – | response rating after 4 weeks (purple nutsedge [1]; .032 kg/ha): 3G; response rating after 4 weeks (purple nutsedge [2]; .032 kg/ha): 2G; response rating after 4 weeks (purple nutsedge [3]; .032 kg/ha): 2G; response rating after 4 weeks (purple nutsedge [4]; .032 kg/ha): 0; response rating after 4 weeks (purple nutsedge [4]; .125 kg/ha): 9C; response rating after 4 weeks (purple nutsedge [4]; .5 kg/ha): 10C |
| COc1nc(NC(=O)NS(=O)(=O)c2ccccc2C(=O)OC(C)C)nc(OC)n1 [drawing 600] | – | – | – | – | – | – | – | – | – | – | – | – | response rating after 4 weeks (purple nutsedge [1]; .004 kg/ha): 8G; response rating after 4 weeks (purple nutsedge [1]; .008 kg/ha): 8G; response rating after 4 weeks (purple nutsedge [2]; .004 kg/ha): 7G; response rating after 4 weeks (purple nutsedge [2]; .008 kg/ha): 8G; response rating after 4 weeks (purple nutsedge [3]; .004 kg/ha): 8G; response rating after 4 weeks (purple nutsedge [3]; .008 kg/ha): 8G; response rating after 4 weeks (purple nutsedge [4]; .004 kg/ha): 8C; response rating after 4 weeks (purple nutsedge [4]; .008 kg/ha): 9C; response rating after 4 weeks (purple nutsedge [4]; .016 kg/ha): 9C; response rating after 4 weeks (purple nutsedge [4]; .032 kg/ha): 10C |
